Results published in patent US20030083366A1, “Combination chemotherapy” (priority 2001, published 2003).
“And” between values parts separate entries of the source, which are not always exact repeats. Equal entries are not always repeated. Where two headings read alike, the source gives them in different places.

How the values were obtained:
[1] = Phase 1 dose-escalation study of CI-994 in solid tumor patients; format: in vivo
Procedure: In one such study, patients were treated using a dose-escalation scheme that increased both the daily dose and the duration of treatment. The majority of patients had received extensive prior chemotherapy. The maximum-tolerated dose (MTD) was 15 mg/m^2/day when the duration of treatment was 14 consecutive days. To allow more prolonged treatment, lower doses were studied. Using a schedule of 8 weeks of continuous daily therapy, followed by a 2-week ‘drug holiday’, the MTD was 8 mg/m^2/day. […] Blood counts tended to stabilize even with continued treatment and to recover quickly when treatment was stopped.

[2] = Route of elimination of radiolabeled drug, rats; format: in vivo; details: within 24 hours
Procedure: (§1) Mass balance/route of elimination studies have not been conducted in humans. Animal studies indicate that the principal route of elimination is via renal excretion, with 80% and 62% of radiolabeled drug appearing in the urine of monkeys and rats, respectively, within 24 hours.

[3] = Route of elimination of radiolabeled drug, monkeys; format: in vivo; details: within 24 hours
Procedure: as §1

[4] = Phase 1 study, once daily high-dose 5-day schedule, relapsed acute leukemia or other hematologic malignancy; format: in vivo
Procedure: An additional Phase 1 study was conducted in patients with relapsed acute leukemia or other hematologic malignancy using a once daily high-dose 5-day dosing schedule. […] Hematologic toxicities cannot be assessed in this patient population. Two patients with AML developed tumor lysis syndrome, resulting in one death. Transient decreases in peripheral white blood cell counts were noted.

[5] = LC-12 squamous cell lung carcinoma implanted subcutaneously in BALB/C mice, chemotherapy study; format: in vivo, female BALB/C mice; details: female, mouse, in vivo, tumor-bearing BALB/C mice
Procedure: (§2) The synergistic combinations provided by this invention have been evaluated in standard chemotherapy studies using female BALB/C mice weighing 18 to 20 g. The test mice were obtained from Charles River Laboratories, Wilmington, Mass. On Day 0 of the test, each mouse was surgically implanted (subcutaneously) with a fragment of LC-12 squamous cell lung carcinoma tumor weighing approximately 30 to 60 mg. The tumor fragments were implanted using a 12 gauge trocar. The mice were weighed weekly, and tumor size (width and length in mm) were measured two times each week with standard calipers. Tumor mass for each animal was calculated according to the formula: [formula]
(§3) where “a” is width of the tumor in mm, and “b” is the length in mm. Evaluation of anticancer activity was established by the formula T-C, where “T” and “C” are the median time (in days) required for the treated and control (respectively) tumors to reach a predetermined size of about 750 mg (the “evaluation size”). Tumors generally reached size of about 150 to about 200 mg before drug dosing was initiated. Antitumor activity was assessed according to four parameters: (1) partial tumor response (PR); (2) complete tumor response (CR); (3) tumor-free survival (TF); and (4) tumor growth delay (TL). Tumor growth delay is expressed as a T-C value, where T is the median days required for the treatment group tumors to reach a predetermined size (e.g., 750 mg), and C is the median days for the control group tumors to reach this size. From the tumor growth delay value, the net log10 tumor cell kill is calculated as follows:
(§4) Net log10 tumor cell kill=[(T−C)−Rx]/3.32×Td
(§5) where Td is the days for the tumor mass to double, and Rx is the total days of treatment. Td is estimated from the best fit straight line from a log-linear plot of the control-group tumors in exponential growth (200 to 800 mg range). The conversion of the T-C values to log10 cell kill is possible because the Td for tumors regrowing after treatment is approximately the same as that for untreated control mice. The net log10 kill value normalizes the efficacy data for tumor growth during treatment regimens of varied duration and provides an estimate of whether an actual regression of the tumor occurred. Positive values indicate that an actual reduction of tumor burden occurred. Negative values indicate the tumor actually grew (although possibly more slowly) during treatment. Tumor-free survivors were excluded from these calculations.
(§6) Acetyldinaline was suspended in 0.5% aqueous methyl cellulose and administered orally at various dosages in 0.5 mL volumes. Docetaxel was dissolved in 5% ethanol, 5% Tween 80, 90% aqueous saline and administered intravenously at various dosage levels in 0.2 mL injections.
(§7) The animals were divided into groups of 10 animals each. One group served as controls and received vehicle alone, with no drug treatments. Two groups received oral doses of acetyldinaline alone at a specified level (as shown in Table 3) of active drug (30 mg/kg and 60 mg/kg). […] Three groups received docetaxel alone at doses of 3.5, 5.6, and 9.0 mg/kg. Two groups received acetyldinaline at the recited doses, in combination with 3.5 mg/kg of docetaxel, and another two groups received acetyldinaline at the recited doses in combination with docetaxel at […], and the final two groups received acetyldinaline at the recited doses, in combination until 9.0 mg/kg of docetaxel.

[6] = test system: LC-12 squamous cell lung carcinoma tumor; assay: as above; format: in vivo, female BALB/C mice; details: for antitumor effect of the agents individually: single agent
Procedure: as §2, §3, §4, §5, §6, §7

[7] = Pharmacokinetics and food effect in the solid tumor Phase 1 study; format: in vivo, patients; details: oral, after a fasting period
[8] = CI-994 30.0 mg/kg/injection oral, Days 11-13, 15-17, 19-21, alone
[9] = CI-994 60 mg/kg/day (MTD), alone
[10] = CI-994 60.0 mg/kg/injection oral, Days 11-13, 15-17, 19-21, alone
[11] = Docetaxel 3.5 mg/kg/injection iv, Days 11, 15, 19, alone
[12] = Docetaxel 5.6 mg/kg/injection iv, Days 11, 15, 19, alone
[13] = Docetaxel 9.0 mg/kg/injection iv, Days 11, 15, 19, alone

## CC(=O)Nc1ccc(C(=O)Nc2ccccc2N)cc1 [CI-994, 4-acetylamino-N-(2′-aminophenyl)-benzamide]
[1]; 8 weeks of continuous daily therapy followed by a 2-week drug holiday
  MTD: 8 mg/m^2/day
[1]; Phase 1 patients
  Responses: one partial response in a heavily pretreated patient with NSCLC and a minor response in one patient each with renal cell cancer and NSCLC
[1]; human, in vivo
  Other toxicities: nausea, vomiting, diarrhea, anorexia, fatigue, mucositis, headache, dehydration, and increases in liver and renal function test values
  cumulative toxicity: no evidence of cumulative toxicity
  dose-limiting toxicity: thrombocytopenia or neutropenia
  time of occurrence of dose-limiting toxicity after start of therapy: ≤ 1 month
[1]; treatment for 14 consecutive days, patients mostly with extensive prior chemotherapy
  maximum-tolerated dose (MTD): 15 mg/m^2/day
[2]
  radiolabeled drug appearing in the urine: 62%
[3]
  radiolabeled drug appearing in the urine: 80%
[4]; in vivo
  Other adverse events: nausea, vomiting, hypotension resulting from dehydration, hypocalcemia, headache
  dose-limiting toxicity: acute CNS toxicity manifested as sedation and somnolence
[4]; once daily high-dose 5-day dosing schedule
  MTD: 135 mg/m^2/day
[5]; oral
  MTD: 60 mg/kg/day
[6]; CI-994 30 mg/kg/day (50% its MTD), alone
  partial tumor response: 20%
[6]; [8]
  % Weight Change: −5.5%
  Net Log10 Kill: −0.5 log10
  Non-specific Deaths: 0/10
  PR (partial response): 2/10
  T − C (tumor growth delay to 750 mg): 4.6 days
  Tumor Free (Day 105): 0/10
[6]; CI-994 30.0 mg/kg/injection oral, Days 11-13, 15-17, 19-21, alone, 30 mg/kg
  CR (complete response): no complete tumor responses and 0/10
[6]; [9]
  complete tumor response rate: 40%
  partial tumor response: 10%
[6]; CI-994 60 mg/kg/day (MTD), alone, 105 days after the last CI-994 treatment
  mice tumor free when the study ended: 30%
[6]; [10]
  % Weight Change: −10.5%
  CR (complete response): 4/10
  Net Log10 Kill: −0.3 log10
  Non-specific Deaths: 0/10
  PR (partial response): 1/10
  T − C (tumor growth delay to 750 mg): 4.9 days
  Tumor Free (Day 105): 3/10
[6]
  antitumor effect of the agents individually: only modest antitumor efforts
[7]; human, plasma, preliminary results, read-out: terminal elimination half-life (converted)
  half-life: ~15 h
[7]
  maximum plasma CI-994 concentrations with increasing dose levels: less than dose-proportional
  terminal elimination half-life and apparent clearance rate versus dose: independent of the dose administered
8 mg/m^2 given orally daily
  Clinical benefit: reported in patients with renal cell cancer
  Objective responses: seen in patients with nonsmall cell lung cancer
In vivo, po
  dose-limiting toxicity: Thrombocytopenia

## CC(=O)O[C@@]12CO[C@@H]1C[C@H](O)[C@@]1(C)C(=O)[C@H](O)C3=C(C)[C@@H](OC(=O)[C@H](O)[C@@H](NC(=O)OC(C)(C)C)c4ccccc4)C[C@@](O)([C@@H](OC(=O)c4ccccc4)[C@H]21)C3(C)C [Docetaxel]
[5]; intravenous, read-out: MTD of docetaxel
  MTD: 9 mg/kg/day
[6]; [11]
  % Weight Change: −7.3%
  CR (complete response): 0/10
  Non-specific Deaths: 0/10
  PR (partial response): 0/10
  T − C (tumor growth delay to 750 mg): -1.7 days
  Tumor Free (Day 105): 0/10
[6]; [12]
  % Weight Change: −11.7%
  CR (complete response): 0/10
  Non-specific Deaths: 1/10
  PR (partial response): 1/10
  T − C (tumor growth delay to 750 mg): -0.5 days
  Tumor Free (Day 105): 0/10
[6]; [13]
  % Weight Change: −16.7%
  CR (complete response): 0/10
  Net Log10 Kill: −0.2 log10
  Non-specific Deaths: 1/10
  PR (partial response): 3/10
  T − C (tumor growth delay to 750 mg): 3.3 days
  Tumor Free (Day 105): 0/10
[6]; Docetaxel 9.0 mg/kg/injection iv, Days 11, 15, 19, alone, listed as docetaxel
  CR (complete response): no complete tumor responses
[6]; docetaxel 9 mg/kg/day (MTD), alone
  partial tumor responses: 30%
[6]
  antitumor effect of the agents individually: only modest antitumor efforts
